3 compounds from publication PMC6896172, “Successful Targeting of the Warburg Effect in Prostate Cancer by Glucose-Conjugated 1,4-Naphthoquinones” (Cancers, 2019) can be followed below.

One data set has as its system PC-3 cells. Description: MTT cytotoxicity assay in PC-3 cells. The class given is cell-based, human. As to conditions: for IC50: 48 h of treatment; for SI [IC50(PNT2) / IC50(PC-3)]: ratio of IC50 in PNT2 cells to IC50 in PC-3 cells, 48 h. The source says:
(§1) For general experiments human prostate cancer cell lines PC-3 and DU145 (docetaxel-resistant, androgen-independent, AR-FL(−), AR-V7(−)), 22Rv1 and VCaP (docetaxel-sensitive, androgen-independent, AR-FL(+), AR-V7(+), and LNCaP (docetaxel sensitive, androgen-dependent, AR-FL(+), AR-V7(−) were used. PC-3, 22Rv1, LNCaP cells as well as the human prostate non-cancer cells PNT2 and RWPE-1 were purchased from ATCC (Manassas, VA, USA). VCaP were purchased from ECACC (Salisbury, UK). The human fibroblast cell line MRC-9, the human embryonic kidney cell line HEK 293T, as well as the human umbilical vascular endothelial cell line HUVEC were kindly donated by Prof. Dr. Dr. med. Sonja Loges (University Medical Center Hamburg-Eppendorf, Hamburg, Germany). Cells were cultured according to the manufacturers’ instructions and were recently authenticated by a commercial service (Multiplexion, Heidelberg, Germany). Culture conditions are described in the Supplementary Information.
(§2) MTT (3-(4,5-dimethylthiazol-2-yl)-2,5-diphenyltetrazolium bromide) cytotoxicity assay was used for the evaluation of cytotoxicity of the compounds or their combinations. Experiments were performed as previously described. In brief, 6000 cells/well were seeded in 96-well plate, incubated overnight, and treated with the drugs in 100 µL/well of 10% FBS/RPMI media containing 2 g/L of D-(+)-glucose for 48 h, unless otherwise stated. For 2 h treatment the cells were treated with the drugs for 2 h in the culture media, then the media was exchanged to fresh drug-free media (100 µL/well) containing MTT reagent and the further steps were performed as previously described.
(§3) Table S4. Cytotoxic activity of the synthesized compounds. Cytotoxicity was determined in human prostate cancer PC-3 cells versus human prostate non-cancer
(§4) PNT2 cells after 48 h of treatment, as well as its ratio. IC50 was evaluated using MTT assay. SI–selectivity index. #–the IC50s in both cell lines were >100 µM.
(§5) Anisomycin was used as a reference substance.
(§6) No Formula IC50(PC-3) IC50(PNT2) SI […]
On the technique in general: Tetrazolium assays rely on reduction of a dye to a coloured formazan, in cell work by metabolically active cells.

The test system of data set [1] is human prostate cancer cell lines and human non-cancer cell lines. In words: MTT cytotoxicity profile in five prostate cancer versus five non-cancer cell lines. Type of data set: cell-based. To be noted: 48 h.
Text: as §1
MTT (3-(4,5-dimethylthiazol-2-yl)-2,5-diphenyltetrazolium bromide) cytotoxicity assay was used for the evaluation of cytotoxicity of the compounds or their combinations. Experiments were performed as previously described. […]

A further data set relates to PNT2 cells. In words: MTT cytotoxicity assay in PNT2 cells. To be noted: 48 h of treatment. Type of data set: cell-based, human.
Text: as §1, §2, §3, §4, §5, §6

In data set [2] the test system is 22Rv1 cells. Description: Colony formation assay. The class given is cell-based, human. As to conditions: 22Rv1 cells treated with non-cytotoxic concentrations for 48 h. The procedure:
Colony formation assays were performed as described before. In brief, cells were treated with the drugs for 48 h and then 100 alive cells were plated into each well of 6-well plates and incubated for 10 days. Surviving colonies were fixed, stained with Giemsa solution and counted.

The test system of data set [3] is 22Rv1 cells. In words: Trypan blue exclusion viability assay. Type of data set: cell-based. To be noted: Homo sapiens, 48 h of treatment. The procedure:
The in vitro effect of the drugs on cell viability and proliferation was evaluated using trypan blue exclusion assay as described before with minor modifications. In brief, cells (0.2 × 10^6 cells/well) were seeded in 12-well plates, incubated overnight, the media was replaced with fresh media (1 mL/well) and treated with the drugs for 48 h. Cells were harvested by trypsination and the viability was measured using trypan blue staining and Beckman Coulter Vi-CELL (Beckman Coulter, Krefeld, Germany).

In another data set the test system is HUVEC cells. Description: MTT cytotoxicity assay in HUVEC cells. The class given is cell-based. As to conditions: Homo sapiens, 48 h of treatment, non-cancer. The procedure: (§7) Dr. Dr. med. Sonja Loges (University Medical Center Hamburg-Eppendorf, Hamburg, Germany). Cells were cultured according to the manufacturers’ instructions and were recently authenticated by a commercial service (Multiplexion, Heidelberg, Germany). Culture conditions are described in the Supplementary Information.
as §2

For another data set, the system named is DU145 cells. Description: MTT cytotoxicity assay in DU145 cells. The class given is cell-based. As to conditions: Homo sapiens, DU-145, 48 h of treatment, cancer. The method, then: as §7, §2
Another data set has as its system LNCaP cells. In words: MTT cytotoxicity assay in LNCaP cells. As to conditions: Homo sapiens, 48 h of treatment, cancer. The class given is cell-based. The procedure: as §7, §2
A further data set concerns MRC-9 cells. In words: MTT cytotoxicity assay in MRC-9 cells. Type of data set: cell-based. As to conditions: Homo sapiens, MRC9, 48 h of treatment, non-cancer. The procedure:
as §7, §2

The next data set deals with HEK293 cells. Description: MTT cytotoxicity assay in HEK293 cells. Type of data set: cell-based. To be noted: Homo sapiens, 48 h of treatment, non-cancer. The procedure: as §7, §2
Data set [4] relates to 22Rv1 cells. Description: MTT cytotoxicity assay in 22Rv1 cells. Type of data set: cell-based, human. To be noted: for IC50: Homo sapiens. The method, then:
as §7, §2

The subject of data set [5] is 22Rv1 cells. Description: Mitochondrial membrane potential assay (JC-1, flow cytometry). As to conditions: 2 h of treatment. Type of data set: cell-based, human. The procedure: The loss of mitochondrial membrane potential (Δψ) was measured by flow cytometry technique using staining with Δψ-sensitive dye JC-1 (5,5′,6,6′-tetrachloro-1,1′,3,3′-tetraethylimidacarbocyanine iodide). Cells were seeded in 12-well plates (100 × 10^3 cells/well in 1 mL/well) and incubated overnight. Then, the media was changed to PBS (1 mL/well) containing the investigational drugs. After 2 h of incubation (37 °C, 5% CO2, in the dark) the cells were trypsinized, pelleted, resuspended in 100 µL of 2 µM JC-1/PBS, incubated for 1 h (37 °C, 5% CO2, in the dark) and Δψ loss was measured by flow cytometry technique.
Background: In flow cytometry, cells or beads pass a laser one at a time.

For a further data set, the system named is RWPE-1 cells. Description: MTT cytotoxicity assay in RWPE-1 cells. Type of data set: cell-based. To be noted: Homo sapiens, 48 h of treatment, non-cancer. The method, then:
as §7, §2

Data set [6] has as its system 22Rv1 cells. In words: Western blotting of treated cells. To be noted: for LC3B-II and SQSTM1 levels (autophagy markers): pre-cytotoxic and cytotoxic concentrations, 48 h. Type of data set: cell-based, human. The method, then:
(§8) Preparation of protein extracts for western blotting was performed as described previously. In brief, for western blotting, 1 × 10^6 cells/well were seeded in Petri dishes (ø 6 cm TC Dish (Sarstedt, Numbrecht, Germany) in 5 mL/dish), incubated overnight and treated with drugs in 5 mL/dish for an indicated time. Cells were harvested using a cell scraper, pelleted, and resuspended in the lysis buffer containing protease and phosphatase inhibitors. Further sample preparation and western blotting were performed as previously described with slight modifications. Relative optical density of the detected bands was quantified with Quantity One 4.6 software (Bio-Rad, Hercules, CA, USA). The primary and secondary antibodies used are listed in the Supplementary Information.

The subject of data set [7] is 22Rv1 cells. In words: Cell fractionation followed by Western blotting. Type of data set: cell-based, human. To be noted: 48 h. The procedure:
as §8
22Rv1 cells were seeded in T75 culture bottles (4 × 10^6 cells/bottle in 20 mL/bottle), treated for 48 h and harvested by scratching. The further separation of cytosolic, mitochondrial and nuclear fractions was performed using the Cell Fractionation Kit ab109719 (abcam, Cambridge, MA) as previously described. Mitochondrial and cytosolic fractions were concentrated using Amicon® Ultra-2 Centrifugal Filter device (Cat. No. UFC203024, Merck, Darmstadt, Germany). Nuclear fractions were additionally homogenized using QIAshedder kit (QIAGEN, Hilden, Germany).
(A western blot detects proteins with antibodies after separation by electrophoresis.)

The test system of data set [8] is 22Rv1 cells. Description: Intracellular ROS (CM-H2DCFDA, flow cytometry). The class given is cell-based, human. To be noted: 2 h of treatment. The method, then:
Intracellular ROS levels were estimated using the ROS-sensitive CM-H2DCFDA reagent (Cat. No. C6827, Molecular probes, Invitrogen, Eugene, OR, USA) as described before. In brief, 22Rv1 cells were seeded in 12-well plates (0.2 × 10^6 cells/well in 1 mL/well of media) and incubated overnight. The media was changed into freshly made pre-warmed 4 µM CM-H2DCFDA/PBS (0.5 mL/well) and incubated for 30 min (37 °C, 5% CO2, in the dark). Then, the CM-H2DCFDA solution was exchanged with 1 mL/well of pre-warmed PBS containing the drugs or H2O2 (positive control) at the indicated concentrations. After 2 h of incubation the cells were trypsinized and immediately analyzed by flow cytometry technique according to the manufacture’s protocols.

The test system of a further data set is VCaP cells. In words: MTT cytotoxicity assay in VCaP cells. Type of data set: cell-based. To be noted: Homo sapiens, 48 h of treatment, cancer. The procedure: as §7, §2
[9] abbreviates: 22Rv1, 48 h of treatment, cancer, read-out: IC50 (22Rv1).
Setting [10] is: 22Rv1 cells, 2 h treatment, read-out: IC50 after 2 h of treatment.

Broadly, the IC50 is the concentration needed to halve the response being measured. Take `COc1ccc(C[C@H]2NC[C@H](O)[C@H]2OC(C)=O)cc1` [Anisomycin, anisomycin, reference compound]: the concentration for half-maximal inhibition (IC50) with PC-3 cells stood at 1.49 µM; in the data set on PNT2 cells it was 0.7 µM. For the same compound, the “SI [IC50(PNT2) / IC50(PC-3)]” value in the data set on PC-3 cells was 0.47. Also, the “selectivity to prostate cancer cell lines versus non-cancer cell lines” value in data set [1] is “no selectivity was found”.

For the compound `CC1(C)OC2OC(C(O)COC3=CC(=O)c4c(O)cccc4C3=O)C(O)C2O1` (centres unmarked) [Compound 7], in the data set with 22Rv1 cells [2], the “cancer cell colony formation” value was “suppress cancer cell colony formation”. The 50% inhibitory concentration (IC50) with PC-3 cells (Homo sapiens, PC-3, 48 h) was 6.1 µM; with 22Rv1 cells [3], 3.49 µM; with HUVEC cells, 9.04 µM; with DU145 cells it was 0.84 µM; with LNCaP cells, 2.19 µM; in the data set with MRC-9 cells, 5.77 µM. Besides, the half-maximal inhibitory concentration (IC50) stood at 3.57 µM in the data set with HEK293 cells; 1.61 µM in the data set with 22Rv1 cells [4] (setting [9]); 24.2 µM in the data set on 22Rv1 cells [4] (setting [10]); 3.39 µM with RWPE-1 cells; 7.29 µM with PNT2 cells (Homo sapiens, PNT2, 48 h); 8.06 µM in the data set with VCaP cells. Moreover, the “SI [IC50(PNT2) / IC50(PC-3)]” value with PC-3 cells is listed as 1.20. The “effect of N-acetyl-L-cysteine pre-treatment on cytotoxic activity” value with 22Rv1 cells [4] (22Rv1 cells, 1 mM NaC 1 h then co-treatment 48 h, FBS- and glucose-free RPMI) is recorded as “significantly suppressed the cytotoxic activity”. Besides, the “effect on ΔΨm” value in the data set on 22Rv1 cells [5] is “quick ΔΨm loss”. Moreover, the “cleavage of caspase-9” value with 22Rv1 cells [6] (2 h and 48 h treatment) is reported as “observed already after 2 h”. Further, the “AR-FL and AR-V7 expression” value in the data set with 22Rv1 cells [6] (48 h treatment) is “downregulated both, AR full length (AR-FL) and AR-V7”. For the same compound, the “Bax and Bcl-2 expression” value with 22Rv1 cells [6] (48 h treatment) was “up-regulation of Bax and down-regulation of Bcl-2”. In addition, the “LC3B-II and SQSTM1 levels (autophagy markers)” value with 22Rv1 cells [6] is “accumulation of both, LC3B-II and SQSTM1”. Further, the “release of mitochondrial proteins AIF and cytochrome C” value in the data set with 22Rv1 cells [7] is on record as “release of mitochondrial proteins”. Moreover, the “effect on ROS level” value with 22Rv1 cells [8] was “remarkable and significant increase of the ROS level”.

For `O=C1C(OC[C@H]2OC(O)[C@H](O)[C@@H](O)[C@@H]2O)=CC(=O)c2c(O)cccc21` (some centres unmarked) [Compound 8], the “cancer cell colony formation” value in the data set on 22Rv1 cells [2] is listed as “suppress cancer cell colony formation”. Also, the concentration for half-maximal inhibition (IC50) with 22Rv1 cells [3] came out at 19.4 µM; with HUVEC cells, 73 µM; in the data set on DU145 cells it was 10.6 µM; with LNCaP cells, 20 µM; with MRC-9 cells, 31.6 µM; in the data set with HEK293 cells, 40 µM. For the same compound, the half-inhibitory concentration (IC50) in the data set on 22Rv1 cells [4] (setting [9]) was 30.1 µM; in the data set on 22Rv1 cells [4] (setting [10]) it was 92.4 µM; with RWPE-1 cells, 49.8 µM; in the data set on PNT2 cells it was 73.7 µM; in the data set with PNT2 cells (Homo sapiens, PNT2, 48 h), 79.3 µM; with VCaP cells it was 56.7 µM. Further, in the data set with 22Rv1 cells [6] (48 h treatment), the “AR-FL and AR-V7 expression” value was “downregulated both, AR full length (AR-FL) and AR-V7”. In addition, the “LC3B-II and SQSTM1 levels (autophagy markers)” value with 22Rv1 cells [6] was “accumulation of both, LC3B-II and SQSTM1”.
